Source: PubChem BioAssay (NCI)
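Briefly, cells in 96-well plates were exposed to five compound concentrations for 48 h, and endpoints were estimated by linear interpolation. Definition used: TGI = concentration required for complete inhibition of growth.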 Where a SMILES comes first, the peptide text is derived from it. The star is where a group is joined. Cbz = O=C(OCc1ccccc1)*; Boc = CC(C)(C)OC(=O)*; OSu = O=C1CCC(=O)N1O*; Bn = c1ccc(C*)cc1

How the values were obtained:
Experiment in all cases: NCI tumour cell line growth inhibition, 48 h
OVCAR-3 ovarian = test system: OVCAR-3 ovarian
PC-3 prostate = test system: PC-3 prostate
ACHN renal = test system: ACHN renal
SNB-75 CNS = test system: SNB-75 CNS
EKVX NSCLC = test system: EKVX NSCLC
KM12 colon = test system: KM12 colon
K-562 leukemia = test system: K-562 leukemia
SK-MEL-2 melanoma = test system: SK-MEL-2 melanoma
LOX IMVI melanoma = test system: LOX IMVI melanoma
UACC-257 melanoma = test system: UACC-257 melanoma
HCT-116 colon = test system: HCT-116 colon
NCI-H23 lung = test system: NCI-H23 lung
TK-10 renal = test system: TK-10 renal
SR leukemia = test system: SR leukemia

Compound: Clc1cc(Cl)cc(C2ON=C(c3ccccc3)N2C23CC4CC(CC(C4)C2)C3)c1 (stereo unspecified)
- TGI (OVCAR-3 ovarian): > 10 µM
- TGI (PC-3 prostate): > 10 µM
- TGI (ACHN renal): > 10 µM
- TGI (SNB-75 CNS): > 10 µM
- TGI (EKVX NSCLC): > 10 µM
- TGI (KM12 colon): > 10 µM
- TGI (K-562 leukemia): > 10 µM
- TGI (SK-MEL-2 melanoma): > 10 µM
- TGI (LOX IMVI melanoma): > 10 µM
- TGI (UACC-257 melanoma): > 10 µM
- TGI (HCT-116 colon): > 10 µM
- TGI (NCI-H23 lung): > 10 µM
- TGI (TK-10 renal): > 10 µM

Compound: C=C[C@@H]1C[C@]2(C(=O)OC)Cc3nc4ccccc4nc3CC(C(=O)OC)=C2O1
- TGI (OVCAR-3 ovarian): > 100 µM
- TGI (PC-3 prostate): > 100 µM
- TGI (ACHN renal): > 100 µM
- TGI (EKVX NSCLC): > 100 µM
- TGI (KM12 colon): > 100 µM
- TGI (SK-MEL-2 melanoma): > 100 µM
- TGI (LOX IMVI melanoma): > 100 µM
- TGI (UACC-257 melanoma): > 100 µM
- TGI (HCT-116 colon): > 100 µM
- TGI (NCI-H23 lung): > 100 µM
- TGI (TK-10 renal): > 100 µM

Compound: CCc1c(Cc2[nH]c(Cc3[nH]c(C=O)c(C)c3CC)c(CC)c2CC)[nH]c(C=O)c1C
- TGI (OVCAR-3 ovarian): > 100 µM
- TGI (ACHN renal): > 100 µM
- TGI (SNB-75 CNS): > 100 µM
- TGI (EKVX NSCLC): > 100 µM
- TGI (K-562 leukemia): > 100 µM
- TGI (SR leukemia): > 100 µM
- TGI (LOX IMVI melanoma): > 100 µM
- TGI (UACC-257 melanoma): > 1 µM
- TGI (HCT-116 colon): > 100 µM
- TGI (NCI-H23 lung): > 1 µM
- TGI (TK-10 renal): > 100 µM

Compound: COc1cc(OC)c2nc(C)c3c(c2c1)NCC3
- TGI (OVCAR-3 ovarian): 33.4 µM
- TGI (PC-3 prostate): 20 µM
- TGI (ACHN renal): 26.2 µM
- TGI (SNB-75 CNS): 26.6 µM
- TGI (K-562 leukemia): 27.7 µM
- TGI (SK-MEL-2 melanoma): 21.4 µM
- TGI (SR leukemia): 7.08 µM
- TGI (LOX IMVI melanoma): 15 µM
- TGI (UACC-257 melanoma): 15.9 µM
- TGI (HCT-116 colon): 12.9 µM
- TGI (NCI-H23 lung): 19.9 µM
- TGI (TK-10 renal): 35.7 µM

Compound: CC(C)(C)OC(=O)NC(Cc1ccc(OCc2ccccc2)cc1)C(=O)NC(CCCCNC(=O)OCc1ccccc1)C(=O)ON1C(=O)CCC1=O (stereo unspecified) (Boc-Tyr(Bn)-Lys(Cbz)-OSu; configuration not given here)
- TGI (PC-3 prostate): 57.7 µM
- TGI (ACHN renal): 42.6 µM
- TGI (SNB-75 CNS): 54.9 µM
- TGI (EKVX NSCLC): > 100 µM
- TGI (KM12 colon): 65.5 µM
- TGI (K-562 leukemia): 73.6 µM
- TGI (SK-MEL-2 melanoma): 33.8 µM
- TGI (SR leukemia): 54.9 µM
- TGI (UACC-257 melanoma): > 100 µM
- TGI (HCT-116 colon): 41 µM
- TGI (NCI-H23 lung): 34.4 µM
- TGI (TK-10 renal): > 100 µM

Compound: CC1=CC[C@@]2(CO)[C@@H]([C@@H]1C)[C@H]1CC[C@@H]3[C@@]4(C)CC[C@H](O)C(C)(C)[C@@H]4CC[C@@]3(C)[C@]1(C)C[C@@H]2O
- TGI (OVCAR-3 ovarian): > 100 µM
- TGI (PC-3 prostate): > 100 µM
- TGI (ACHN renal): 91.7 µM
- TGI (EKVX NSCLC): > 100 µM
- TGI (KM12 colon): > 100 µM
- TGI (K-562 leukemia): > 100 µM
- TGI (LOX IMVI melanoma): 45.2 µM
- TGI (UACC-257 melanoma): > 100 µM
- TGI (HCT-116 colon): > 100 µM
- TGI (NCI-H23 lung): 46.4 µM
- TGI (TK-10 renal): 44.4 µM

Compound: Cc1nc2c(=O)n(-c3ccccc3)c3ccccc3c2o1
- TGI (OVCAR-3 ovarian): > 100 µM
- TGI (PC-3 prostate): > 100 µM
- TGI (ACHN renal): > 100 µM
- TGI (SNB-75 CNS): > 100 µM
- TGI (EKVX NSCLC): > 100 µM
- TGI (KM12 colon): > 100 µM
- TGI (K-562 leukemia): > 100 µM
- TGI (SK-MEL-2 melanoma): > 100 µM
- TGI (LOX IMVI melanoma): > 100 µM
- TGI (UACC-257 melanoma): > 100 µM
- TGI (HCT-116 colon): > 100 µM
- TGI (NCI-H23 lung): > 100 µM
- TGI (TK-10 renal): > 100 µM

Compound: O=C(O)c1cc(/C=C/c2cc(O)ccc2O)ccc1O
- TGI (OVCAR-3 ovarian): > 10 µM
- TGI (PC-3 prostate): > 10 µM
- TGI (ACHN renal): > 10 µM
- TGI (EKVX NSCLC): > 10 µM
- TGI (K-562 leukemia): > 10 µM
- TGI (SK-MEL-2 melanoma): > 10 µM
- TGI (SR leukemia): > 10 µM
- TGI (LOX IMVI melanoma): > 10 µM
- TGI (UACC-257 melanoma): > 10 µM
- TGI (NCI-H23 lung): > 10 µM
- TGI (TK-10 renal): > 10 µM

Compound: c1ccc([P+](Cc2ccccc2C[P+](c2ccccc2)(c2ccccc2)c2ccccc2)(c2ccccc2)c2ccccc2)cc1
- TGI (OVCAR-3 ovarian): > 100 µM
- TGI (PC-3 prostate): > 100 µM
- TGI (ACHN renal): > 100 µM
- TGI (SNB-75 CNS): > 100 µM
- TGI (KM12 colon): > 100 µM
- TGI (K-562 leukemia): > 100 µM
- TGI (SK-MEL-2 melanoma): > 100 µM
- TGI (LOX IMVI melanoma): > 100 µM
- TGI (UACC-257 melanoma): > 100 µM
- TGI (HCT-116 colon): > 100 µM
- TGI (NCI-H23 lung): > 100 µM
- TGI (TK-10 renal): > 100 µM
